In patent publication US12637468B2, “Substituted [1,2,4]triazolo[4,3-b]pyridazines as GABAA receptor modulators” (SHANGHAI SIMR BIOTECHNOLOGY CO., LTD., priority 2019, dated 2026):

Target: T1, α5-GABAA receptor (Homo sapiens, UniProt P18507+P31644)
T1 construct: expressed in transfected cells; host or cells: HEK293, monoclonal stably transfected line
Experiment: Cell-level screening: whole cell patch clamp, inverse agonist efficacy on α5-GABAA receptor expressed in HEK293
Format: cell-based
Details: drug 100 nM, GABA 0.05 μM, HEK293 expressing α5, β3 and γ2 subunits, clamped at −60 mV; read-out: Compound inverse agonist efficacy %
Procedure: The inventors used electrophysiological methods to determine the inverse agonist efficacy of the drugs to be tested on the α5-GABAA receptor. The detailed methods are as follows:
Different subunits of GABAA receptors were expressed in human […] cell line 293 (HEK293) cell line. The cells were cultured in a culture medium and used as a cell model for screening pain inhibiting drugs. The α, β and γ subunits are necessary to form complete functional GABAA receptors. In this embodiment, the inventors had established the following cell model: α5 subunit (see GenBank Accession No. NM_000810.3 for protein sequences), β3 subunit (see GenBank Accession No. NM_000814.5 for protein sequences) and γ2 subunit (see GenBank Accession No. NM_000816.3 for protein sequences) were expressed in HEK293 cell line at the same time, followed by screening the monoclonal cell line. This cell line contained α5-GABAA receptor and had complete GABAA receptor function.
The monoclonal stably transfected HEK-293 cells expressing α5-GABAA receptor were cultured in 10 cm culture dishes and passaged when the cells grew to 80%-90%. During passaging, the culture medium was aspirated first, then 3 mL of DPBS phosphate buffer salt (Gibco™) was added to the culture dishes, and the culture dishes were shaken slightly, and DPBS was aspirated. 1 mL of trypsin (TrypLE Express, Gibco™) was added thereto, and the cells were digested at 37° C. for 1-2 minutes. Then 3 mL of complete medium (DMEM+10% FBS (Gibco™)) was added and the cells at the bottom of the culture dishes were dispersed. The cell suspension were transferred to a 15 mL centrifugal tube (Corning) and then centrifuged at 200 g for 3 minutes. The supernatant was discarded, 4 mL of complete medium was added, and the cells were gently blown and resuspended for use. If cell passaging was performed, the cell suspension was diluted at a ratio of 1:5 or 1:10. If cells for electrophysiology use were prepared, the cell suspension was diluted in a ratio of 1:12, then added into a 24-well dish (Corning™) in which glass slides were placed and pretreated with Poly-D-Lysine, and the cells were tested after being attached to the walls. The culture time of cells for electrophysiology use was no more than 48 hours.
Drug concentration setting: the final drug concentration used in drug screening was 100 nM, and the GABA concentration range was 0.05 μM. The final drug concentrations used in the dose-inversal agonistic efficiency (%) test were 0.3 nM, 3 nM, 10 nM, 30 nM, 100 nM and 300 nM. The whole cell patch clamp technique was used in electrophysiological experiments, which could refer to the literature (I. Lecker, Y. Yin, D. S. Wang and B. A. Orser, (2013) Potentiation of GABAA receptor activity by volatile anaesthetics is reduced by α5-GABAA receptor-preferring inverse agonists, British Journal of Anaesthesia 110 (S1): i73-i81). The components of extracellular solution (ECS) for electrophysiology use were as follows: 150 mM NaCl, 5 mM KCl, 2.5 mM CaCl2), 1 mM MgCl2, 10 mM HEPES and 10 mM glucose (pH 7.4); electrode internal solutions for electrophysiology use were as follows: 140 mM CsCl, 11 mM EGTA, 10 mM HEPES, 2 mM CaCl2), 1 mM MgCl2, 4 mM MgATP, 2 mM TEA (pH 7.3). The signal acquisition used an EPC-10 amplifier and the PatchMaster software (HEKA). The recording electrode was drawn using borosilicate glass, and the electrode resistance was 4 to 6 MΩ. The ALA-VC3-8PP™ system was used for extracellular administration. Separate cells that grew independently was selected for recording. During recording, the cell membrane potential was clamped at −60 mV. During experiment, an extracellular solution was applied to the cells for about 20 seconds. When the baseline reached to a stable state, the extracellular solution was switched to GABA. Then the current induced by GABA could be detected. […]

T1 sequence (P31644 32-462): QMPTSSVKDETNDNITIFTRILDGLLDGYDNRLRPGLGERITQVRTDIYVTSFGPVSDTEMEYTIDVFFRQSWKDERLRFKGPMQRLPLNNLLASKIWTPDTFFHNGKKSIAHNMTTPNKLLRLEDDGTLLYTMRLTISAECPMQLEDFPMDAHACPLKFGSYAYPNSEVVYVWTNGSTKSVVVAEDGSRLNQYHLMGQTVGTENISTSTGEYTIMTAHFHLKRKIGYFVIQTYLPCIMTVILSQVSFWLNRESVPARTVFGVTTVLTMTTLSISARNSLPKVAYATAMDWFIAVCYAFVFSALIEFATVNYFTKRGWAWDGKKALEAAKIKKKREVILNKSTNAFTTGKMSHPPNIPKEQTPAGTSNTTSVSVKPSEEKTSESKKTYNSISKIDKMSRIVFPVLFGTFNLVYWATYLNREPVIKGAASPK
T1 sequence (P28472 26-473 partner): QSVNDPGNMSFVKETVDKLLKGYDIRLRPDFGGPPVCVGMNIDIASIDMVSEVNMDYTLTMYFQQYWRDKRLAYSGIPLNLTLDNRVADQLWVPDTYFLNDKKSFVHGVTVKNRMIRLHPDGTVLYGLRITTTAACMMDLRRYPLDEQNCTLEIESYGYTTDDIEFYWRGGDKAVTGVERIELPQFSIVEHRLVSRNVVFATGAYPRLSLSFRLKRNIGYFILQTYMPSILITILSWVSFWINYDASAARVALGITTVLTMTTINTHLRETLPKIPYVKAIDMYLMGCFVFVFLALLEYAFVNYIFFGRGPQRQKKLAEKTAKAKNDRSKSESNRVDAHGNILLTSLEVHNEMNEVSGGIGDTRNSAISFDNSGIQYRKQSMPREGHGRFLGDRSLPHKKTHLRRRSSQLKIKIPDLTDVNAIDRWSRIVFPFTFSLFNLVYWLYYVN
T1 sequence (P18507 40-467 isoform P18507-1 limits assumed): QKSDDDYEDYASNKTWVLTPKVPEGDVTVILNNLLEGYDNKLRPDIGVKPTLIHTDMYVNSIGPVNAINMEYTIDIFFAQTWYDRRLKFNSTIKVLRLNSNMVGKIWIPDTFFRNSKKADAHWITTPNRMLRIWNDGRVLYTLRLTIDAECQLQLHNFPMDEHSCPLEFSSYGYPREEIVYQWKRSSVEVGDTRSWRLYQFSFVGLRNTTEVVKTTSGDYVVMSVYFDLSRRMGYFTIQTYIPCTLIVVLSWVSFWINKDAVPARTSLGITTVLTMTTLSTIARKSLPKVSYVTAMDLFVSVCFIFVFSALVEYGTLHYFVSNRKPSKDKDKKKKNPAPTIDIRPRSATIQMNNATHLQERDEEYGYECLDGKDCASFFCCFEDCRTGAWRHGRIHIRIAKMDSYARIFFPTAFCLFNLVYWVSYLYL

Row | Structure (SMILES) | inhibition at 0.1 µM [%]
1 | COc1cc2nnc(-c3cc(C)on3)n2nc1OCc1cccc(C)n1 [Embodiment 16] | 31.1
2 | COc1cc2nnc(-c3cc(C)on3)n2nc1OCc1ccc2c(n1)CN(CCCC#N)C2 [Embodiment 257] | 50
3 | COc1ccc2nc(COc3nn4c(-c5cc(C)on5)nnc4cc3OC)ccc2c1 [Embodiment 136] | 37.3
4 | COc1cc2nnc(-c3cc(C)on3)n2nc1OCc1ccc2c(n1)CNC2 [Embodiment 98] | 38
5 | CCN1Cc2nc(COc3nn4c(-c5cc(C)on5)nnc4cc3OC)ccc2C1=O [Embodiment 67] | 58
6 | COCCCOc1cnc(COc2nn3c(-c4cc(C)on4)nnc3cc2OC)cn1 [Embodiment 86] | 41.8
7 | CCn1ccc2nc(COc3nn4c(-c5cc(C)on5)nnc4cc3OC)ccc2c1=O [Embodiment 148] | 69.6
8 | Cc1cc(-c2nnc3cc(OC(F)F)c(OCc4ccccn4)nn23)no1 [Embodiment 54] | 43.5
9 | COc1ccc(COc2nn3c(-c4cc(C)on4)nnc3cc2OC)nc1 [Embodiment 37] | 42.1
10 | COc1cc2nnc(-c3cc(C)on3)n2nc1OCc1ccc2c(n1)NCCO2 [Embodiment 119] | 35.9
11 | COc1cc2nnc(-c3cc(C)on3)n2nc1OCc1ccc2c(n1)CCN([C@@H]1CCOC1)C2 (single isomer, unassigned) [Embodiment 182] | 53.8
12 | COCCCn1ccc2nc(COc3nn4c(-c5cc(C)on5)nnc4cc3OC)ccc2c1=O [Embodiment 139] | 49
13 | COc1cc2nnc(-c3cc(C)on3)n2nc1OCc1ccc2nnc(C3CCOCC3)n2n1 [Embodiment 215] | 36.8
14 | COc1cc2nnc(-c3cc(C)on3)n2nc1OCc1ccc2c(n1)CCN(C(=O)NCC(F)F)C2 [Embodiment 207] | 49.3
15 | COc1cc2nnc(-c3cc(C)on3)n2nc1OCc1ccc2c(n1)CCN([C@H]1CCOC1)C2 (single isomer, unassigned) [Embodiment 181] | 59
16 | COc1cc2nnc(-c3cc(C)on3)n2nc1OCc1ccc2c(n1)CCN(C(=O)N(C)CC(F)(F)F)C2 [Embodiment 204] | 49.7
17 | COc1cc2nnc(-c3cc(C)on3)n2nc1OCc1ccc2c(n1)CN(C1COC1)C2 [Embodiment 255] | 45.4
18 | COc1cc2nnc(-c3cc(C)on3)n2nc1OCc1ccc2c(n1)CCN(CCC#N)C2=O [Embodiment 91] | 47.8
19 | COc1cc2nnc(-c3cc(C)on3)n2nc1OCc1cccc(C(F)(F)F)n1 [Embodiment 45] | 42.4
20 | COc1cc2nnc(-c3cc(C)on3)n2nc1OCc1ccc2ccn(C)c2n1 [Embodiment 94] | 32.9
21 | COc1cc2nnc(-c3cc(C)on3)n2nc1OCc1ccc(C(=O)NCC(F)(F)F)cn1 [Embodiment 11, 6-(((7-Methoxy-3-(5-methylisoxazol-3-yl)-[1,2,4]triazolo[4,3-b]pyridazin-6-yl)oxy)methyl)-N-(2,2,2-trifluoroethyl)nicotinamide] | 35.4
22 | COc1cc2nnc(-c3cc(C)on3)n2nc1OCc1ccc2nn(C3COC3)cc2n1 [Embodiment 226, 3-(7-Methoxy-6-((2-(oxetan-3-yl)-2H-pyrazolo[4,3-b]pyridin-5-yl)methoxy)-[1,2,4]triazolo[4,3-b]pyridazin-3-yl)-5-methylisoxazole] | 45.9
23 | COc1cc2nnc(-c3cc(C)on3)n2nc1OCc1ccc2c(n1)CCN(CC13CC(C#N)(C1)C3)C2 [Embodiment 194] | 41.5
24 | COc1cc2nnc(-c3cc(C)on3)n2nc1OCc1ncccc1Cl [Embodiment 17] | 47.7
25 | COc1cc2nnc(-c3cc(C)on3)n2nc1OCc1ccc2nn(C)cc2n1 [Embodiment 237] | 57.9
26 | COc1cc2nnc(-c3cc(C)on3)n2nc1OCc1ccc2ncn(C)c2n1 [Embodiment 101] | 32.9

Row | Structure (SMILES) | inhibition at 0.1 µM [%]
27 | COc1cc2nnc(-c3cc(C)on3)n2nc1OCc1cccc(C2CC2)n1 [Embodiment 57] | 17.6
28 | COc1cc2nnc(-c3cc(C)on3)n2nc1OCc1ccc(C2CCNCC2)cn1 [Embodiment 116] | 44.9
29 | COc1cc2nnc(-c3cc(C)on3)n2nc1OCc1cccc(N2CCOCC2)n1 [Embodiment 2] | 26.6
30 | COc1cc2nnc(-c3cc(C)on3)n2nc1OCc1ncccc1C#N [Embodiment 30] | 29.4
31 | COc1cc2nnc(-c3cc(C)on3)n2nc1OCc1ccc2c(cnn2Cc2ccccc2)n1 [Embodiment 222] | 44.3
32 | COc1cc2nnc(-c3cc(C)on3)n2nc1OCc1ccc2nccn2n1 [Embodiment 105] | 49.3
33 | COc1cc2nnc(-c3cc(C)on3)n2nc1OCc1ccc2c(n1)CCN(CC(F)(F)CO)C2 [Embodiment 196] | 50.8
34 | COc1cc2nnc(-c3cc(C)on3)n2nc1OCc1ccc(C2CCCN2)cn1 (stereo not shown) [Embodiment 69, 3-(7-Methoxy-6-((5-(pyrrolidin-2-yl)pyridin-2-yl)methoxy)-[1,2,4]triazolo[4,3-b]pyridazin-3-yl)-5-methylisoxazole] | 50
35 | COc1cc2nnc(-c3cc(C)on3)n2nc1OCc1ccc(OCCCC#N)nn1 [Embodiment 27] | 42
36 | COc1cc2nnc(-c3cc(C)on3)n2nc1OCc1cnc(OC2COC2)cn1 [Embodiment 157] | 46.8
37 | CCN1CCc2nc(COc3nn4c(-c5cc(C)on5)nnc4cc3OC)ccc2C1 [Embodiment 79] | 47.6
38 | COc1cc2nnc(-c3cc(C)on3)n2nc1OCc1ccc2c(n1)CNCC2 [Embodiment 120] | 42.6
39 | COc1ccc(C(F)(F)F)nc1COc1nn2c(-c3cc(C)on3)nnc2cc1OC [Embodiment 62] | 35.7
40 | COc1cc2nnc(-c3cc(C)on3)n2nc1OCc1ccc2c(n1)CCN(c1nnc(C)o1)C2 [Embodiment 192] | 40.8
41 | COCC(C)(C)N1CCc2nc(COc3nn4c(-c5cc(C)on5)nnc4cc3OC)ccc2C1 [Embodiment 190] | 38.3
42 | COCC(C)Oc1ccc(COc2nn3c(-c4cc(C)on4)nnc3cc2OC)nn1 (stereo not shown) [Embodiment 161] | 53.1
43 | COCCNc1ccc(COc2nn3c(-c4cc(C)on4)nnc3cc2OC)nn1 [Embodiment 159] | 50.4
44 | COc1cc2nnc(-c3cc(C)on3)n2nc1OCc1ccc(C2(F)CNC2)cn1 [Embodiment 71] | 40.7
45 | COc1cc2nnc(-c3cc(C)on3)n2nc1OCc1ccc2c(n1)CCN(C(=O)CC#N)C2 [Embodiment 143] | 49.6
46 | COCCOc1ccc(COc2nn3c(-c4cc(C)on4)nnc3cc2OC)nn1 [Embodiment 26] | 41.7
47 | COc1cc2nnc(-c3cc(C)on3)n2nc1OCc1ccc2c(ccn2C2COC2)n1 [Embodiment 250] | 47.4
48 | COCCCn1ccc2ccc(COc3nn4c(-c5cc(C)on5)nnc4cc3OC)nc21 [Embodiment 93] | 36.5
49 | COc1cc2nnc(-c3cc(C)on3)n2nc1OCc1ccc2nn(C(C)C)cc2n1 [Embodiment 235] | 43.5
50 | COc1cc2nnc(-c3cc(C)on3)n2nc1OCc1ccc2nn(C3COC3)c(C)c2n1 [Embodiment 258] | 54.7
51 | Cc1cc(-c2nnc3cc(OCC4CC4)c(OCc4ccccn4)nn23)no1 [Embodiment 14] | 19.4
52 | COc1cc2nnc(-c3cc(C)on3)n2nc1OCc1ccc(C2=CCCCC2)cn1 [Embodiment 13] | 29
